# Reference: patent publication US9439916B2, “Composition for decelerating the aging in the organism and for extending the life time thereof and the use of said composition” (MITOTECH SA, priority 2007, dated 2016)
# Experiments:
# Assay type in all cases: in vivo
# OXYS rats [1] = assay: Morris water maze test of learning ability; conditions: 16-month-old OXYS rats, 250 nanomoles per kg of body weight since 1.5 months
# Description: The Morris water maze test is actively used for studies on learning and long-term spatial memory in animals. The method of Morris allows to evaluate strategies for behavior, dynamics of skill formation, to detect even weak differences in behavior. This test evaluates the ability of an animal, swimming in the opaque water of the pool and looking at the signs on its sides, to learn how to find the invisible, hidden platform under water, no matter from what point of the perimeter of the pool the animal was released.
# In subsequent experiments, 4 groups of 16-month-old animals: control Wistar and OXYS rats, and groups received the preparation since 1.5 months at a dose of 250 nanomoles per kg of body weight, were used. A latent period of time spent by rats to find the platform depended only on the genotype—it took longer in OXYS rats than in Wistar rats—OXYS rats coped worse with the task.
# OXYS rats [2] = assay: Bone tissue state by X-ray densitometry (osteoporosis); conditions: two 45-day courses of 50 nanomoles per kg per day, studied at 6 months
# Procedure: Experiments were conducted on the two lines of rats—Wistar and OXYS. Genetically determined metabolic defect, manifesting itself as decreased resistance of OXYS rats towards oxidative stress, leads to changes in their organism which may be regarded as accelerated ageing syndrome. In particular, reduced bone mineral density in OXYS rats, as compared to Wistar rats, is observed. Such changes are also observed in osteoporosis in humans that allows us to consider these animals as an adequate model of senile osteoporosis in humans.
# Wistar and OXYS rats,—control rats and those who received two courses of SkQ1 (50 nanomoles per kg of body weight per day), were studied. The animals received the preparation since 1.5 and 4 months of age for 45 days. At the age of 6 months, bone tissue state was studied by X-ray densitometry.
# [3] = test system: cat with senile generalized progressive retinal dystrophy; assay: Veterinary clinical trial, senile blindness in a cat; conditions: 15 years, daily instillation of 250 nM SkQ1 solution, pH 6.5
# Procedure: A) Patient—cat, breed—European Shorthair, age—15 years. Diagnosis—retinitis, papillitis, senile generalized progressive retinal dystrophy. Clinical signs—depigmentation of t. lucidum, the optic disk (OD) is violet. Retinal detachment. Vision is absent.
# Treatment—daily instillation of 250 nM SkQ1 solution (in physiological solution at pH 6.5).
# female SHR mice = assay: Age-related changes in estrous function of female SHR mice
# Procedure: (§1) An experiment with outbred SHR mice was carried out. The mice were divided into four groups (25 animals per each group). The three groups received a certain amount of SkQ1 with drinking water throughout their lives, and the fourth (control) group received water without SkQ1. Dose of SkQ1 is given in nanomoles per kg of animal weight per day.
# With increasing the duration of the observation period, tendency of decelerating age-related disorders in estrous function in experimental animals becomes more pronounced, which were expressed as increase in the duration of cycle and lowering the frequency of regular cycles. For example, in the 2nd cohort in 15-month-old experimental animals received SkQ1 at a dose of 0.01 nanomoles per day, the frequency of regular cycles was 94%, whereas in the control—67%.
# rats = assay: Behavioral tests "open field" and "elevated cruciform maze"
# OXYS male rats = assay: Sexual motivation model: male near receptive female behind a barrier; conditions: one year old OXYS males
# Description: […] To do this, an experimental model of sexual arousal was used—males were kept under conditions allowing them to see the receptive female, perceive the female's smell, but excluding physical contact with the female. Under these conditions, male rats and male mice show increase in blood testosterone level and typical motivational behavior.
# Drosophila melanogaster = assay: Life span of fruit flies, line w1118, fed SkQ1
# Procedure: Isogenous laboratory Drosophila line w^1118 in which all individuals have the same genotype was chosen for the experiments, thus eliminating the influence of genetic differences between individuals on the results of experiments. The mitochondria-targeted antioxidant SkQ1 at a concentration of 1.85 nM was tested. Stock SkQ solution was diluted in distilled water. Adult flies were administered the compound throughout their lives. Since adult flies can feed on food located on the surface, it was decided to spread the SkQ1 solution of a corresponding concentration on the surface of freshly prepared medium poured into test tubes containing the flies. Virgin females and males of line w^1118 selected during the day were placed in tubes, each tube contained five individuals (males and females separately), in standard medium. In control tubes, 100 μl of distilled water without SkQ was spread on standard medium surface; in test tubes, 100 μl of the test compound at a selected concentration was spread on standard medium surface. The number of live flies in each tube was recorded daily, once a week flies were transferred to a corresponding fresh medium. All tubes were incubated at 25° C. In each experiment, 100 individuals (20 tubes) were analyzed.
# SHR mice = assay: Life span of outbred SHR mice receiving SkQ1 with drinking water; conditions: for animals remained alive in 707 days of the experiment: SHR mice, SkQ1 with drinking water lifelong, control 8%
# Procedure: as §1
# (V. N. Anisimov, I. N. Alimova, D. A. Baturin, I. G. Popovich, M. A. Zabezhinski, S. V. Rosenfeld, K. G. Manton, A. V. Semenchenko, A. I. Yashin (2003) Dose-dependent effect of melatonin on life span and spontaneous tumor incidence in female SHR mice. Exp Gerontol. 38, 449-461).
# p53 (-/-) mice = assay: Life span of p53 gene knockout mice; conditions: 0.1 nmoles per mouse per day (5 nM/kg/day) with drinking water
# Description: Mice lacking the p53 gene (p53−/−) can not synthesize the p53 protein, so-called “guardian of the genome”, and can serve as a model of accelerated ageing and death of the organism caused by cancer [for more details, see A. A. Sablina, A. V. Budanov, G. V. Ilyinskaya, L. S. Agapova, J. E. Kravchenko, P. M. Chumakov (2005) The antioxidant function of the p53 tumor suppressor //Nature Med., 11, 1306-1313)].
# Based on the previously conducted PCR analysis detecting p53−/−, p53+/− and p53+/+ mice in the progeny of heterozygous (p53+/−) animals, the two groups of mice were drawn up which received: • clean drinking water; • water supplemented with SkQ1 (0.1 nmoles of the preparation per mouse per day (5 nM/kg/day)).
# [4] = test system: horse with senile blindness; assay: Veterinary clinical trial, senile blindness in a horse
# Description: B) Patient—horse, gelding, not thoroughbred, age—20 years. Diagnosis—senile blindness associated with degeneration of the retina and its vessels. Clinical signs—shortening and thinning of retinal vessels emanating from the optic disk, depigmentation of t. lucidum t. nigrum, thinning of the retina over the entire surface of eye fundus. As a result, Choroid blood vessels in the form of straight lines are well visualized, posterior polar senile cataract is detected. The animal cannot see during the last eight months.
# Treatment—daily instillation of 250 nM SkQ1 solution (in physiological solution at pH 6.5), and since the 3rd month of treatment—2 times a day.
smiles,measurement,setting,value
CC1=C(C)C(=O)C(CCCCCCCCCC[P+](c2ccccc2)(c2ccccc2)c2ccccc2)=CC1=O [SkQ1],ability to learn (latent period to find the platform in the Morris maze),OXYS rats [1],improved the ability of OXYS rats to learn
same,bone mineral density of femur and tibia,OXYS rats [2],reliably increased
same,total mass of bone tissue,OXYS rats [2],reliably increased
same,vision after 10 days of the treatment,[3],"the pupil began to respond to light, the cat began to play with the ball and see even small objects"
same,vision after 21 days of the treatment,[3],vision retained
same,frequency of regular estrous cycles,"female SHR mice; 2nd cohort, 15-month-old female SHR mice, 0.01 nanomoles per day, control 67%",94%
same,age-related changes in estrous function,"female SHR mice; female SHR mice received SkQ1, compared to the control group",less pronounced age-related changes in estrous function
same,stress-protective effect,rats; Wistar rats,clear stress-protective effect
same,search and exploratory activity of rats,rats; open field and elevated cruciform maze,positive effect
same,time spent by a male rat near a female rat separated by a barrier,"OXYS male rats; 50 nanomoles of SkQ1, versus control males",reliably increased
same,time spent by a male rat near a female rat separated by a barrier,"OXYS male rats; 250 nanomoles of SkQ1, versus control males",reliably increased
same,fraction of individuals aged 70 days and older,"Drosophila melanogaster; 1.85 nM SkQ1, control 0.18, P=0.0056",0.48
same,average life expectancy,"Drosophila melanogaster; 1.85 nM SkQ1 on medium surface, 25° C., control 58 days, P=0.0012",66 days
same,animals remained alive in 707 days of the experiment,SHR mice; first of three test groups (dose not given),36%
same,animals remained alive in 707 days of the experiment,SHR mice; second of three test groups (dose not given),28%
same,animals remained alive in 707 days of the experiment,SHR mice; third of three test groups (dose not given),24%
same,life span of SHR mice,"SHR mice; optimal doses (1 nanomole per animal per day), versus control",much longer life span
same,life span of p53 (-/-) mice,p53 (-/-) mice,dramatic increase of the life span
same,vision after 90 days of the treatment,"[4]; 20 years, instillation of 250 nM SkQ1 solution daily, 2 times a day since 3rd month",The vision was restored
same,growth of new blood vessels from the optic disk,[4]; after 90 days of the treatment with 250 nM SkQ1 instillation,40
